Patent US9103830B2, “Enzyme sensors, methods for preparing and using such sensors, and methods of detecting protease activity” (Georgia State University Research Foundation, Inc., priority 2006, dated 2015)
Entries after “also recorded” stand apart in the source; their conditions may differ.

Legend:
[1] = target: T1, trypsin (Bos taurus, UniProt P00760); assay: Steady-state kinetics of trypsin digestion of EGFP-based trypsin sensors and BAPNA (absorbance at 490 nm, Michaelis-Menten fit); format: biochemical, bovine; conditions: Table 2; 10 mM Tris, 20 mM CaCl2, pH 7.4
T1 construct: Active trypsin is produced only after trypsinogen reaches the small intestine through the common bile duct and is cleaved by enterokinase; purchased Sigma, St. Louis; host or cells: bovine pancreas
T1 sequence (P00760 24-246): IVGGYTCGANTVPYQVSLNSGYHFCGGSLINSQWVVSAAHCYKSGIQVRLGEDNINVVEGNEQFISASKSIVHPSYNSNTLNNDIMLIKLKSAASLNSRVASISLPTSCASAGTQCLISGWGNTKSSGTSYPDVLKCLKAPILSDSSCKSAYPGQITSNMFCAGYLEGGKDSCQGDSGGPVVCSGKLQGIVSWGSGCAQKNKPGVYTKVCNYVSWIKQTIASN
Description: Initial rates of trypsin digestion reaction for EGFP-T/C1 with various concentrations were measured using a time-course model to monitor the change of absorbance at 490 nm for 10 min on a UV-1700 spectrometer (Shimadzu, Japan), where the initial rate was equivalent to the resulting slope of absorbance increase.
In order to investigate the kinetic change and to determine the steady-state kinetic parameters kcat, Km, and kcat/Km for hydrolysis of EGFP-based trypsin sensors upon the action of trypsin, initial rates were measured at various EGFP-based trypsin sensor concentrations. The change of absorbance was monitored at 490 nm for 10 min using UV-1700 spectrometer (Shimadzu, Japan) in time-course model and the slope of absorbance increase was determined as the initial rate data. The data were fitted to the Michaelis-Menten equation by nonlinear regression using KaleidaGraph 3.5 software (Synergy software) to obtain the Michaelis constants (Km), turnover numbers (kcat) and specificity constants (kcat/Km).
In order to examine buffer pH effect on trypsin cleavage, kinetic parameters of our designed trypsin sensors were evaluated during trypsin digestion in PIPES buffer (20 mM PIPES, 20 mM CaCl2, pH 6.7) and Tris buffer (10 mM Tris, 20 mM CaCl2, pH 7.4 and pH 8.0), respectively. […]

[2] = target: T1, trypsin; assay: Inhibition by leupeptin of trypsin digestion of EGFP-T/C1; format: biochemical, bovine
Description: In order to examine inhibition effect of leupeptin (Sigma, St. Louis), a trypsin inhibitor, leupeptin at various concentrations (0, 12.5, 25, 50 and 100 nM) was mixed with EGFP-T/C1 and subsequently digested by trypsin at a final concentration of 0.005 μM. The kinetic studies of EGFP-T/C1 with various concentrations were performed at each inhibitor concentration level and the absorbance change at 490 nm was mintored using a time course model. The double reciprocal of initial rates and trypsin sensor concentrations was performed to obtain the plot for confirming inhibition type and calculation of Ki value.
In order to ensure that our developed sensor is able to directly monitor the catalytic step of the enzymatic reaction, we then examined the inhibition effect of leupeptin on trypsin during the digestion of EGFP-T/C1 with various leupeptin concentrations. The rate of the signal change due to cleavage decreases with increasing leupeptin concentrations (FIG. 6A).

[3] = test system: caspase-3 activation in Hela cells; assay: Fluorescence imaging of Hela cells transfected with caspase-3 sensor, STS induction; format: cell-based, human
Description: (§1) Hela cells were grown on glass coverslips (0.5-1.0×10^6 cells/dish) in 35 mm culture dishes in Dulbecco's Modified Eagles Medium (DMEM) (Sigma Chemical Co., St. Louis, Mo.) with 44 mM NaHCO3, pH 7.2, and supplemented with 10% (v/v) fetal calf serum (FCS), 100 U/ml penicillin and 0.1 mg/ml streptomycin (Pen/Strep) at 37° C. with 5% CO2 in a humidified incubation chamber. After the cells were seeded and grown overnight, the EGFP-based caspase-3 sensor plasmid was transfected into Hela cells with lipofectamine-2000 (Invitrogen Life Technologies) and serum-free Opti-MEM (Gibco Invitrogen Corporation) according to the manufacturer's instructions. […] The cells were then grown 24 to 48 hours in a humidified chamber with 5% CO2 at 30° C. before fluorescence microscope imaging. […]
Hela cells with transfected EGFP-based caspase-3 sensor were imaged following its expression for 24 or 48 hours. […] Fluorescence imaging of Hela cells with EGFP-wt transfection was used as the control.
The ratiometric change between fluorescence emission for excitation at 398 nm and 488 nm was used to detect caspase-3 activation and inhibition at different time intervals in living cells. Fluorescence for both excitation wavelengths is expected to decrease at 398 nm and produce a corresponding increase at 488 nm during the course of the reaction. The fluorescence intensity of the cells was normalized with equation 2: […]

[4] = target: T1, trypsin; assay: Cleavage status after trypsin digestion (SDS-PAGE, MALDI-MS); format: biochemical, bovine; conditions: up to 40 hours
Description: To examine the cleavage status of the protease sensors (EGFP-T/C1, and EGFP-wt) at different time points, 20 μl of reaction mixtures of 15 μM EGFP variants during trypsin digestion were removed and immediately added SDS sample buffer and boiled to stop the reaction for monitoring by SDS-PAGE at different digestion time intervals (0 min, 5 min, 10 min, 30 min, 60 min, 2 h, 6 h, and 24 h). The samples were loaded on 15% SDS-PAGE to examine the cleavage status of three EGFP variants.
Similarly, after digestion with trypsin, the cleavage status was confirmed using matrix assisted laser desorption/ionization-mass spectrometry (MALDI-MS).
In order to verify the cleavage status of EGFP-based trypsin sensors, the samples during trypsin digestion at various digestion time intervals were examined with 15% SDS-PAGE and MALDI mass spectrometry.

[5] = test system: trypsin activation in MIA PaCa-2 cells; assay: Fluorescence imaging of MIA PaCa-2 cells transfected with trypsin sensor, caerulein activation; format: cell-based; conditions: zymogen activation by 10 nM caerulein
Description: as §1, with “MIA PaCa-2” for “Hela”, “bovine” for “calf”, “(FBS),” for “(FCS),”, “EGFP-T/C1” for “the EGFP-based caspase-3 sensor plasmid”
MIA PaCa-2 cells with transfected EGFP-T/C1 were imaged following trypsin sensor expression for 24 or 48 hours. […] The ratiometric change between fluorescence emission for excitation at 398 nm and 488 nm was used to detect trypsin activity at different time intervals in the living cells. Fluorescence for both excitation wavelengths is expected to decrease at 398 nm and produce a corresponding increase at 488 nm during the course of reaction. The fluorescence intensity of the cells was normalized with equation 2: […]
The fluorescence ratiometric change (R) is expressed by equation 3: […]

[6] = test system: caspase-3 activation in MIA PaCa-2 cells; assay: Fluorescence imaging of MIA PaCa-2 cells transfected with caspase-3 sensor, STS induction; format: cell-based
Description: After induction, there was obvious increase in fluorescence of EGFP-EF172cas2 at 398 nm excitation and significant decrease in fluorescence at 488 nm excitation in real time, which results in an increased fluorescence ratio change between 398 and 488 nm, and a corresponding increase in sensitivity for determining the caspase-3 activity in living cells, and an increase in the dynamic range up to 4 for the caspase-3 activity determination. Although there was a slight increase and then decrease in fluorescence of EGFP-wt at both wavelengths after STS induction, the relative fluorescence ratio change was negligible. A possible reason for this would be a change in the cell shape to which increases the fluorescence slightly during the apoptosis. […] Apoptosis is observed in MIA PaCa-2 is a little earlier and stronger than in HeLa cells. There is a huge fluorescence change with excitation at 398 nm in MIA PaCa-2 cells transfected with EGFP-EF172cas2. The cause of this is reasoned to be due to intrinsic high-level caspase-3 activity in MIA PaCa-2 cells and its activity is enhanced by STS induction.

`Cl.N=C(N)NCCCC(NC(=O)c1ccccc1)C(=O)Nc1ccc([N+](=O)[O-])cc1` (racemic) [BAPNA, benzoyl-DL-arginine-4-nitroanilide hydrochloride] showed a kcat [1] of 1.33 ± 0.17 s⁻¹.

With `CC(=O)N[C@@H](CC(C)C)C(=O)N[C@@H](CC(C)C)C(=O)N[C@H](C=O)CCCNC(=N)N` [leupeptin] the inhibition type ([2]; double reciprocal plot, Enzfitter fit) was “competitive inhibition” and the Ki ([2]; substrate EGFP-T/C1, 0.005 μM trypsin, 10 mM Tris, 20 mM CaCl2, pH 7.4) was 31.1 ± 2.3 nM.

DEVD-CHO was tested, and the “ratio (R398/488) of fluorescence of caspase-3 sensor cells incubated with caspase-3 inhibitor” value ([3]; Hela cells transfected with EGFP-cas3-1e, inhibitor overnight, then 1 μM STS) was “no change”.

In the case of “EGFP-wt: enhanced green fluorescent protein, Sequence ID. No. 119; used as the control”, the “cleavage status upon incubation with trypsin” value [4] is reported as “remains intact”, the “ratiometric emission change (510 nm emission, excitation 488/398 nm)” value [5] is reported as “remained unchanged” and the “ratio (R398/488) of fluorescence signal change” value ([3]; Hela cells, 1 μM STS induction, emission 510 nm) is reported as “no apparent ratiometric change; also recorded: negligible”. The fluorescence ratio change [6] was “maintains a gradient increase”.
